Values after ≈ are worked out from the molar mass of the structure shown. Read-outs that look alike come from different tables or passages of the source.
Key:
[1] = tested on: MCF-7 human breast cancer cells; test: ESR free radical (ROS) measurement in MCF-7 cell suspensions with DMPO; type: cell-based; conditions: for relative peak heights of the ESR signals (mean±range, n=2): 1×10^6 MCF-7 cells, 5 min at 37° C.; for ESR signal indicative of ROS production in MCF-7 cells: 10 uM NSC3852, 8 uM NSC2039
Description: Free Radical Measurements: All ESR measurements were conducted using a Bruker EMIR spectrometer (Bruker Instruments Inc., Billerica, Mass.) and a flat-cell assembly. Hyperfine couplings were measured (to 0.1 G) directly from magnetic field separation using potassium tetraperoxochromate (K3CrO8) and 1,1-diphenyl-2-picrylhydrazyl as reference standards. The relative radical concentration was estimated by multiplying half of the peak height by (ΔHpp)^2, where (ΔHpp) represents peak-to-peak width. The Acquisit program was used for data acquisitions and analyses. MCF-7 cells (2.0×10^6 cells/60-mm^2 dish) were harvested 48 h after plating by trypsinization and collected at room temperature by centnfugation (225 g, 5 min). Cells were washed once with ice-cold PBS and resuspended in ice-cold PBS at 2×10^6 cells/ml. Radical production was measured in the presence of the spin trap 5,5-dimethyl-1-pyrroline-N-oxide (DMPO; Aldrich Chemical Co., Milwaukee, Wis.). DMPO (200 mM) and 1×10^6 cells test agents were mixed in 1.0 ml of PBS, incubated at 37° C. for 5 mm, and then transferred to a flat cell for ESR measurements.

[2] = tested on: MCF-7 cells; test: Colorimetric determination of reduced and oxidized glutathione; type: cell-based, human; conditions: after 1 h, P<0.05
Description: Colorimetric Determination of Reduced and Oxidized Glutathione: The GSH and GSSG concentrations in MCF-7 cells (3×10^6 cell/60 mm^2 dish) were measured enzymatically using the GSHI GSSG-412 kit (Oxis Research, Portland, Oreg.). GSSG and GSH standards were prepared in 5% metaphosphoric acid. Cell samples were prepared in 5% metaphosphoric acid with or without 1-methyl-2-vinyl-pyridium trifluoromethane sulfonate, a GSH-specific scavenger. Ellman's reagent (5′,5-dithiobis-2-nitrobenzoic acid) reacts with GSH to form a product with an absorption maximum at 412 nm. GSSG was determined using glutathione reductase to reduce GSSG to GSH followed by reaction with Ellman's reagent.

[3] = tested on: MCF-7 cells; test: Comet assay for DNA damage; type: cell-based, human
Description: Comet Analysis: The comet assay is a single-cell gel electrophoresis method for measuring DNA damage. MCF-7 cells (2×10^5/35-mm^2 dish) were treated 12 h after plating. Twenty-four hours later, the cells were harvested and resuspended (1.5×10^5 cells/ml) in ice-cold PBS. The PBS cell suspension (50 ul) was mixed with 500 ul of 42° C. low-melting point agarose, spread evenly (75 ul) onto a Comet Slide (Trevigen, Gaithersburg, Md.), and allowed to harden. The slides were then immersed in ice-cold lysis solution (Trevigen) for 45 mm to lyse the cells and then transferred to freshly prepared alkali solution (300 mM NaOH and 1 mM EDTA, […]) for 45 mM. at room temperature to denature the DNA. Electrophoresis was performed at 4° C. Slides were air-dried overnight at room temperature and then stained with SYBR Green (Trevigen). Comets were visualized by fluorescence microscopy at 630× magnification with the aid of an antifade solution. Comet images were analyzed using the LAI Automated Comet Assay Analysis System (Loats Associates, Inc., Westminster, Md.). DNA damage was quantified in 80 comets per treatment/experiment using the tail moment [Tail moment [(% DNA) (distance traveled)]].

[4] = tested on: MCF-7 cells; test: Cell death ELISA (apoptosis); type: cell-based, human
Description: Cell Death Enzyme-Linked Immunosorbent Assay: We quantified cytoplasmic nucleosomes using the Cell Death Detection […] kit (Roche Molecular Biochemicals, Indianapolis, Ind.) in MCF-7 cells plated in triplicate into 96-well plates. The cytoplasmic fractions from attached cells in each well were assayed in duplicate for the presence of nucleosomes according to the directions from the suppliers. The apoptotic response was measured by the nucleosome-enrichment fraction calculated as the ratio of the absorbance (405 nm) of drug-treated cultures/solvent-exposed cultures.

[5] = tested on: T. gondii tachyzoites; test: NSC3852 inhibition of T. gondii tachyzoite proliferation in HS68 cells (Example 4); type: cell-based; conditions: Toxoplasma gondii, approximately 60 hours, n=5 experiments, read-out: median IC50 for inhibition of T. gondii tachyzoite proliferation
Description: Briefly, T. gondii tachyzoites (1×10^5) were introduced into individual wells in a 48-well culture dish containing confluent monolayers of host cells (normal human skin fibroblasts HS68). Approximately 60 hours later, the tachyzoites were harvested from the medium and counted. […] Data points wee the average of triplicate determinations at every concentration of NSC3852 used.

[6] = tested on: T. gondii tachyzoites; test: T. gondii tachyzoite proliferation assay in HS68 cells (tachyzoite count); type: cell-based, Toxoplasma gondii
Description: Parasite propagation—The RH strain of Toxoplasma gondii was grown in BM bovine macrophage cells or HS68 human foreskin fibroblast cells obtained from the American Type Culture Collection (Rockville, Md.). HS68 cells were grown in RPMI 1640 medium (Mediatech, Inc., Herndon, Va.) plus 10% fetal bovine serum (Atlanta Biologicals, Lawrenceville, Ga.), 1 mM sodium pyruvate and 100 U/ml each of penicillin and streptomycin. Parasites were harvested from infected cultures of HS68 cells growing in T-75 cm^2 flasks. After removing the culture medium, the cells were scraped into 5 ml of phosphate-buffered saline and a cell lysate obtained by passing through a 26-gauge needle. To purify the parasites, the cell lysate was filtered through a 3 micron (micrometer) filter.
(§1) Proliferation assays: HS68 cells were replica plated in 48-well dishes, and grown to confluence prior to infection with 5-10×10^4 freshly purified T. gondii tachyzoites/well. After 2 hours, the media and non-infective tachyzoites were removed, and replaced with RPMI medium containing 2% fetal bovine serum plus 1 mM sodium pyruvate, penicillin (100 U), streptomycin (100 U) and test agent or a vehicle control. The proliferation assays were terminated 48-72 hours post-infection when the untreated cells were heavily infected. All of the culture media were removed from the wells, and the tachyzoites in the media were fixed by dilution (1:1) into phosphate-buffered saline containing 10% formaldehyde. The tachyzoites were collected by brief centrifugation (30 seconds, […]) at room temperature using a tabletop microfuge. The tachyzoites were resuspended in 100 ul of phosphate-buffered saline, and duplicate aliquots were counted using a hemocytometer. […] The monolayer of HS68 cells in each well was fixed and stained for 5 minutes using a solution of 50% ethanol-5% formaldehyde-0.1% crystal violet in 0.85% sodium chloride, then rinsed with water, and air-dried. The minimum inhibitory concentration (MIC) of compounds that suppressed Toxoplasma-induced lysis of the HS68 cells was determined visually by counting the number of plaques/well in the monolayer.

[7] = tested on: T. gondii; test: Plaque suppression / protection of HS68 monolayer from T. gondii; type: cell-based, Toxoplasma gondii; conditions: for MIC IC50 (ratio MIC/IC50): MIC plaque suppression relative to IC50 tachyzoite count; for MIC: Toxoplasma gondii, read-out: MIC (uM) Plaque Suppression
Description: as §1

[8] = tested on: HS68 human foreskin fibroblast cells; test: Toxicity to HS68 host cells; type: cell-based; conditions: 10 uM
[9] = tested on: Cryptosporidium parvum; test: Real-time PCR analysis of C. parvum oocyst production in infected HCT-8 cells; type: cell-based; conditions: 48 hours, apicidin 70 ng/ml, SAHA 2.5 ug/ml
Description: Monolayer cultures of HCT-8 human colon cells growing in 24-well plastic tissue culture dishes were infected with C. parvum oocysts for 3 hours. […] The cells were harvested, and DNA was extracted. The DNA was analyzed for the production of C. parvum oocysts from the infected cells using real-time PCR and DNA primers that specifically amplify the C. parvum oocysts wall protein (COWP).

[10] = tested on: T. gondii tachyzoites; test: In vivo acute toxoplasmosis in mice (survival); parameters: species or system Toxoplasma gondii; CD-1 mice; conditions: TSA 0.5 mg/kg, SAHA 50 mg/kg, scriptaid 3.5 mg/kg i.p. once daily; valproic acid 300 mg/kg oral daily
Description: Specifically, female CD-1 mice (20 g) were inoculated in the sub-scapular region with 5,000 T. gondii tachyzoites on Day 0. […] The dose of scriptaid was not optimized in this experiment. In this study, valproic acid was administered orally in the drinking water at a dose of 300 mg/kg. Survival was monitored twice daily beginning on day 9 of the study. The results are depicted graphically in FIG. 5A and in tabular form in FIG. 5B.

[11] = tested on: human tumor cell lines; conditions: variety of human tumor cell lines in tissue culture; cited from earlier work
[12] = RH strain T. gondii in HS68 cells, 48-well plate, mean+/-SEM

## O=Nc1ccc(O)c2ncccc12 [NSC3852, 5-nitroso-8-quinolinol]
[1]; 2 uM
  relative peak heights of the ESR signals (mean±range, n=2): 70±4 mm
[1]
  ESR signal indicative of ROS production in MCF-7 cells: indicative of the DMPO-OH adduct, was observed
[1]; 10 uM
  relative peak heights of the ESR signals (mean±range, n=2): 109±3 mm
[2]
  decrease in [GSH]/[GSSG] compared with control cells: 20%
[3]
  DNA damage (comet tail moment): maximal at 24 h
[4]
  time of peak apoptosis: 48 h
[5]
  IC50: 79 nM

## CCCC(=O)[O-].[Na+] [Sodium butyrate, sodium butyrate]
[6]; Toxoplasma gondii, Hs68, read-out: IC50 (uM) Tachyzoite Count
  IC50: 1000 ± 455 µM
[6]; Toxoplasma gondii, Hs68, read-out: IC50 range of carboxylate inhibitors
  IC50: 1000 to 5000 µM
[7]
  MIC IC50 (ratio MIC/IC50): 4.2
  MIC: 4200 ± 800 µM

## Oc1cccc2cccnc12 [NSC2039, 8-quinolinol]
[1]
  ESR signal indicative of ROS production in MCF-7 cells: no signal was produced
[3]
  DNA damage (comet tail moment): did not induce DNA damage

## O=C(CCCCCCC(=O)NO)NO [SBHA, suberic bishydroxamic acid]
[6]; RH strain T. gondii in HS68 cells, 48-well plate, 48-72 hours post-infection, mean+/-SEM, read-out: IC50 (uM) Tachyzoite Count
  IC50: 0.213 ± 0.11 µM
[7]
  MIC IC50 (ratio MIC/IC50): 58.7
[7]; [12]
  MIC (uM) Plaque Suppression: 12.5 ± 5 µM (≈ 2.55 µg/mL)
[1]
  ESR signal indicative of ROS production in MCF-7 cells: rapid and robust ESR signals

## O=C(CCCCCCC(=O)Nc1ccccc1)NO [SAHA, suberoylanilide hydroxamic acid]
[6]; tachyzoite IC50 vs literature tumor cell concentrations
  times tachyzoites are more sensitive than human tumor cells: 10-200 times
[7]; 1 uM, 48 hours
  state of HS68 monolayer of T. gondii-infected treated cells: completely intact
[7]; [12]
  MIC: 0.4 ± 0.1 µM (≈ 0.106 µg/mL)
[8]
  toxicity to HS68 cells at highest concentration tested: no discernable toxicity
[9]
  number of oocysts/ml (mean ± S.D. n = 6): 252.8 ± 280 oocysts/ml
[9]; vs 0.1% DMSO
  % Reduction in oocysts numbers: 96.2%
[10]
  control of acute toxoplasmosis in mice: showed in vivo efficacy
[11]
  concentration reducing tumor cell numbers and inducing tumor cell apoptosis: 1 to 20 µM

Source: patent publication US20100226857A1, “TUMOR CELL DIFFERENTIATION AGENTS AS CHEMICAL INHIBITORS AND TREATMENTS FOR INTRACELLULAR PARASITES” (priority 2006, published 2010)
